Here are results for six compounds from PubChem BioAssay (NCI).

The structures appear in SMILES notation. Where “and” joins values, the source holds several entries; their conditions need not be identical. Identical values can stand only once.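 Cultured in 96-well plates, cells were exposed to test compound for 48 hours across five concentrations. Abbreviation: GI50, concentration required for 50% inhibition of growth. TGI is the concentration that stops growth completely.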

Some test systems named below: 786-0 renal; EKVX NSCLC; HL-60(TB) leukemia; NCI-H23 lung; OVCAR-8 ovarian; SF-268 CNS; SF-539 CNS; SK-MEL-2 melanoma; UACC-257 melanoma; UACC-62 melanoma.
Common to all, as to assay: growth of human tumour cells (NCI), 48 h

In the case of `COc1ccc(C(Nc2ncccn2)c2cc3c(cc2O)OCO3)cc1` (centres undefined), the TGI is 39.3 µM in the test with 786-0 renal; 55.7 µM with EKVX NSCLC; 46 µM in the test with HL-60(TB) leukemia; 35.3 µM in the test on NCI-H23 lung; 45.2 µM with OVCAR-8 ovarian; 38.4 µM in the test with SF-268 CNS. In addition, the TGI in the test on SF-539 CNS was 33.1 µM; in the test with SK-MEL-2 melanoma it was 46.9 µM; in the test on UACC-257 melanoma, 36.4 µM; in the test on UACC-62 melanoma it was above 100 µM.

For `CN(Cc1cnc2nc(N)nc(N)c2n1)c1ccc(C(=O)NC(CCC(=O)O)C(=O)O)cc1` (centres undefined), the GI50 in the test with 786-0 renal is 0.0428 µM; in the test on EKVX NSCLC, 0.399 µM; in the test on HL-60(TB) leukemia, 0.0742 µM; in the test on NCI-H23 lung, 0.354 µM; in the test on OVCAR-8 ovarian, 0.0532 µM; in the test with SF-268 CNS, 0.247 µM. Besides, the figures for the GI50 in the test on SF-539 CNS, with UACC-257 melanoma and in the test on UACC-62 melanoma were 0.234 µM, 0.955 µM and 0.145 µM, respectively. For the same compound, the TGI in the test on 786-0 renal, with EKVX NSCLC, with HL-60(TB) leukemia, in the test on NCI-H23 lung, in the test with OVCAR-8 ovarian and in the test with SF-268 CNS was above 100 µM in each case. For the same compound, the TGI in the test on SF-539 CNS was above 25.3 µM; with SK-MEL-2 melanoma, above 100 µM; in the test with UACC-257 melanoma, above 100 µM; in the test with UACC-62 melanoma, above 100 µM.

`COc1ccc2c3c(c(OCCCN(C)C)nc2c1)-c1ccc(Cl)cc1C3=O`: the GI50 in the test on 786-0 renal is 1.76 µM; in the test with EKVX NSCLC, 7.17 µM; in the test with HL-60(TB) leukemia it was 18.9 µM; in the test with NCI-H23 lung it was 11 µM; with OVCAR-8 ovarian, 5.98 µM; with SF-268 CNS, 6.42 µM. The GI50 with SF-539 CNS was 8.2 µM; in the test on SK-MEL-2 melanoma, 19.6 µM; in the test on UACC-257 melanoma it was 16.4 µM; with UACC-62 melanoma it was 10.7 µM. In addition, the TGI in the test with 786-0 renal turned out to be 3.64 µM; with EKVX NSCLC it was 22.7 µM; in the test on HL-60(TB) leukemia, 64.2 µM; in the test on NCI-H23 lung, 25.3 µM; in the test on OVCAR-8 ovarian, 34.6 µM; in the test on SF-268 CNS, 21.8 µM. Also, the TGI with SF-539 CNS is 21.3 µM; with SK-MEL-2 melanoma it was 40.3 µM; in the test with UACC-257 melanoma, 33 µM; with UACC-62 melanoma, 23.6 µM.

In the case of `Cn1cnc([N+](=O)[O-])c1Sc1ncnc2c1ncn2C1OC(CO)C(O)C1O` (centres undefined), the GI50 is 5.35 µM with 786-0 renal; 86.2 µM with EKVX NSCLC; 22.6 µM in the test on HL-60(TB) leukemia; 4.8 µM with NCI-H23 lung; 6.19 µM in the test with OVCAR-8 ovarian; 18.4 µM in the test with SF-268 CNS. The GI50 is 4.11 µM in the test on SF-539 CNS, 8.9 µM in the test with SK-MEL-2 melanoma, 24.5 µM with UACC-257 melanoma and 5.98 µM in the test with UACC-62 melanoma. Moreover, the TGI in the test with 786-0 renal, in the test with EKVX NSCLC, with HL-60(TB) leukemia, with NCI-H23 lung, in the test on OVCAR-8 ovarian and in the test on SF-268 CNS was above 100 µM in each case. Also, the TGI in the test with SF-539 CNS, with SK-MEL-2 melanoma, with UACC-257 melanoma and in the test on UACC-62 melanoma was above 100 µM throughout.

Regarding `CN(C)c1ccc(/C=C/c2ccnc3ccccc23)cc1`, the GI50 in the test with 786-0 renal was 3.77 µM; in the test on EKVX NSCLC it was 3.19 µM; with HL-60(TB) leukemia, 2.86 µM; in the test on NCI-H23 lung, 3.83 µM; in the test with OVCAR-8 ovarian it was 5.68 µM; with SF-268 CNS, 5.58 µM. Moreover, the GI50 is 3.14 µM in the test with SF-539 CNS, 26.2 µM in the test on SK-MEL-2 melanoma, 22.2 µM with UACC-257 melanoma and 3.11 µM in the test with UACC-62 melanoma. Moreover, the TGI with 786-0 renal was > 100 µM and 21.6 µM; in the test on EKVX NSCLC, > 100 µM and 30.2 µM; with HL-60(TB) leukemia, > 100 µM and 16.8 µM; in the test on NCI-H23 lung, > 100 µM and 23 µM; with OVCAR-8 ovarian, above 100 µM; in the test on SF-268 CNS, above 100 µM. For the same compound, the TGI in the test on SF-539 CNS is > 100 µM and 17.5 µM; in the test with SK-MEL-2 melanoma it was above 100 µM; in the test on UACC-257 melanoma it was > 100 µM and 71.2 µM; with UACC-62 melanoma, > 100 µM and 29.5 µM.

For `CC(=O)/C(C)=N/N/C(N)=N\S(=O)(=O)c1cc(C(=O)Nc2ccccc2)c(Cl)cc1SCc1ccccc1`, the GI50 in the test on 786-0 renal was 0.766 µM; in the test with EKVX NSCLC it was 6.62 µM; in the test with HL-60(TB) leukemia, 2.36 µM; in the test on NCI-H23 lung, 42.8 µM; in the test with OVCAR-8 ovarian, 8.6 µM; in the test on SF-268 CNS, 40.4 µM. Also, the GI50 in the test with SF-539 CNS is 2.79 µM; with SK-MEL-2 melanoma it was 43.5 µM; in the test on UACC-257 melanoma it was 34.8 µM; in the test on UACC-62 melanoma it was 16.4 µM. Moreover, the TGI in the test with 786-0 renal is above 100 µM; with EKVX NSCLC it was 39.5 µM; in the test with HL-60(TB) leukemia, 24.2 µM; in the test with NCI-H23 lung, above 100 µM; in the test on OVCAR-8 ovarian, above 100 µM; with SF-268 CNS, above 100 µM. Besides, the TGI is 8.05 µM in the test with SF-539 CNS, above 100 µM with SK-MEL-2 melanoma, above 100 µM in the test with UACC-257 melanoma and above 100 µM in the test with UACC-62 melanoma.
